Some test systems named below: IGROV-1; Hs-578T; OVCAR-5; T47D; SK-MEL-5; OVCAR-4; UACC-62; SF-539; HOP-92; A549; CCRF-CEM; EKVX; OVCAR-8; PC-3; HCC 2998; MDA-N; NCI/ADR-RES; NCI-H522; A498.
What all share (assay): growth of human tumour cells (NCI), 48 h

Each structure is given as a SMILES string.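 These data come from cells grown in 96-well plates and exposed to compound for 48 hours at five concentrations. At the GI50, growth is halved.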 Activity calls are given as the source filed them. Cut-off read from the data, not from the text of the source: active = GI50 up to about 1.1 µM and inactive = higher. Numbered stars: 1 amine (or outer) side, 2 acyl side, 3 side chain; on linkers, the order of the positions; unused ones are H or OH. Bridge positions count the residues as written; N and C are the ends. Square brackets hold non-standard residues; d marks the D form. Peptide text beside a SMILES is read from it. X58 = COc1c(N[*:1])cccc1C(=O)O[C@H](C(=O)[C@H](C)C(=O)[*:2])C(C)C; X57 = CC(C)C[C@H](C(=O)[*:2])C(C)C(=O)C1CCCN1[*:1]; NMeY = CN[C@@H](Cc1ccc(O)cc1)C(=O)O; Lac = C[C@H](O)C(=O)O Bounds are passed on as bounds.

As for `O=S(=O)(/C=C/C=C/S(=O)(=O)c1ccccc1)c1ccccc1`, the GI50 is 4.56 µM (inactive) with IGROV-1; 2.43 µM (inactive) with Hs-578T; 7.83 µM (inactive) in the experiment on OVCAR-5; 1.04 µM (active) in the experiment with T47D; 0.853 µM (active) in the experiment on SK-MEL-5; 1.65 µM (inactive) with OVCAR-4. Besides, the GI50 in the experiment on UACC-62 is 0.721 µM (active); with SF-539 it was 3.88 µM (inactive); with HOP-92, 1.37 µM (inactive); in the experiment with A549 it was 9.27 µM (inactive); in the experiment on CCRF-CEM it was 0.151 µM (active); with EKVX, 1.72 µM (inactive). The GI50 in the experiment with OVCAR-8 is 0.573 µM (active); in the experiment on PC-3, 4.68 µM (inactive); in the experiment with HCC 2998 it was 11.5 µM (inactive); in the experiment with MDA-N it was 1.24 µM (inactive); in the experiment on NCI/ADR-RES, 1.93 µM (inactive); in the experiment on NCI-H522, 0.174 µM (active).
Turning to `Cc1ccc(/C=C2\N=C(N3CCCCC3)NC2=O)cc1`, the GI50 is 70.8 µM (inactive) in the experiment with Hs-578T; > 100 µM (inactive) in the experiment with OVCAR-5; 58.1 µM (inactive) in the experiment with T47D; > 100 µM (inactive) in the experiment with OVCAR-4; > 100 µM (inactive) in the experiment on UACC-62; > 100 µM (inactive) with SF-539. Further, the GI50 with HOP-92 is > 100 µM (inactive); with A549, > 100 µM (inactive); in the experiment on CCRF-CEM, > 100 µM (inactive); in the experiment on EKVX, > 100 µM (inactive); in the experiment on OVCAR-8, 64.1 µM (inactive); in the experiment with PC-3 it was > 100 µM (inactive). Moreover, the GI50 in the experiment with HCC 2998 was 58.1 µM (inactive); in the experiment on MDA-N, > 100 µM (inactive); with NCI/ADR-RES, 70.8 µM (inactive); in the experiment with NCI-H522, 74.5 µM (inactive).
For `Cc1ncc([N+](=O)[O-])n1CCN=[N+]=[N-]`, the GI50 in the experiment with IGROV-1, in the experiment on Hs-578T, with OVCAR-5, in the experiment with T47D, in the experiment on SK-MEL-5 and in the experiment on OVCAR-4 was > 100 µM (inactive) throughout. The GI50 in the experiment on UACC-62, with SF-539, in the experiment with HOP-92, in the experiment with A549, with EKVX and with A498 was > 100 µM (inactive) throughout. Further, the GI50 in the experiment with OVCAR-8, with PC-3, in the experiment on MDA-N, with NCI/ADR-RES and in the experiment with NCI-H522 was > 100 µM (inactive) throughout.
On to `COc1ccc(C[C@H]2C(=O)O[C@H](C)[C@H](NC(=O)[C@@H](CC(C)C)C(C)C(=O)C3CCCN3C(=O)[C@H](C)O)C(=O)Nc3cccc(c3OC)C(=O)O[C@@H](C(C)C)C(=O)[C@H](C)C(=O)N[C@@H](CC(C)C)C(=O)N3CCC[C@H]3C(=O)N2C)cc1` (some centres undefined) (H-[Lac][X57]T[X58]LP[NMeY](Me); ester 3-C), for which the GI50 with IGROV-1, with Hs-578T, with OVCAR-5, with T47D, with SK-MEL-5 and with OVCAR-4 was > 12.5 µM (inactive) in each case. Besides, the GI50 in the experiment with UACC-62 was > 12.5 µM (inactive); in the experiment with SF-539 it was > 12.5 µM (inactive); with HOP-92, > 12.5 µM (inactive); in the experiment on A549, 6.75 µM (inactive); with EKVX, > 12.5 µM (inactive); with OVCAR-8, > 12.5 µM (inactive). Further, the GI50 is 3.85 µM (inactive) in the experiment with PC-3; 3.82 µM (inactive) in the experiment with HCC 2998; 10.1 µM (inactive) with MDA-N; > 12.5 µM (inactive) with NCI/ADR-RES; 9.82 µM (inactive) with NCI-H522.
As for `O=c1[nH]nc(-c2ccccc2)n1/N=C\CC/C=N\n1c(-c2ccccc2)n[nH]c1=O`, the GI50 in the experiment on IGROV-1 was > 49.9 µM (inactive); with Hs-578T, 24.9 µM (inactive); in the experiment with OVCAR-5, 60 µM (inactive); with T47D, 30.8 µM (inactive); in the experiment on SK-MEL-5, 21.6 µM (inactive); in the experiment on OVCAR-4, 52.4 µM (inactive). The GI50 is 17.6 µM (inactive) in the experiment with UACC-62; 27.4 µM (inactive) in the experiment on SF-539; 25.5 µM (inactive) in the experiment on HOP-92; > 100 µM (inactive) with A549; > 10 µM (inactive) in the experiment on CCRF-CEM; 44.3 µM (inactive) in the experiment on EKVX. In addition, the GI50 in the experiment with OVCAR-8 is 30.1 µM (inactive); in the experiment on PC-3 it was 28.1 µM (inactive); in the experiment on HCC 2998, 40.7 µM (inactive); in the experiment on MDA-N, 20 µM (inactive); in the experiment on NCI/ADR-RES, 38.5 µM (inactive); in the experiment with NCI-H522, > 94.2 µM (inactive).
In the case of `O=C1c2ccccc2CC12Cc1ccc3c(c1C2=O)CCCC3` (centres undefined), the GI50 in the experiment with IGROV-1 was 4.71 µM (inactive); in the experiment with Hs-578T, 0.491 µM (active); in the experiment with OVCAR-5 it was > 100 µM (inactive); in the experiment on T47D, 1.39 µM (inactive); in the experiment with SK-MEL-5, 6.19 µM (inactive); in the experiment on OVCAR-4, 3.29 µM (inactive). The GI50 in the experiment on UACC-62 is 8.2 µM (inactive); with SF-539 it was 4.89 µM (inactive); in the experiment with A549, 8.05 µM (inactive); in the experiment on CCRF-CEM, 49 µM (inactive); in the experiment on EKVX, > 100 µM (inactive); in the experiment on A498 it was 23.7 µM (inactive). The GI50 with OVCAR-8 is 26 µM (inactive); with PC-3, 66.7 µM (inactive); in the experiment with HCC 2998, > 100 µM (inactive); with MDA-N, 6.35 µM (inactive); in the experiment with NCI/ADR-RES, 7.06 µM (inactive); with NCI-H522, 5.21 µM (inactive).
Regarding `Cc1ccc(S(=O)(=O)N2CCN3C(=O)c4ccccc4C32c2ccc(F)cc2)cc1` (centres undefined), the GI50 was 22.9 µM (inactive) in the experiment with IGROV-1; > 100 µM (inactive) with Hs-578T; > 100 µM (inactive) in the experiment with OVCAR-5; 56.6 µM (inactive) in the experiment with T47D; 17.7 µM (inactive) in the experiment with SK-MEL-5; > 100 µM (inactive) in the experiment on OVCAR-4. The GI50 in the experiment with UACC-62 is 44.9 µM (inactive); in the experiment with A549, 51.4 µM (inactive); in the experiment with CCRF-CEM, 35.1 µM (inactive); in the experiment with EKVX, 67.8 µM (inactive); in the experiment on A498, 16.2 µM (inactive); in the experiment with OVCAR-8, > 100 µM (inactive). Also, the GI50 with PC-3 was 32 µM (inactive); with HCC 2998 it was > 100 µM (inactive); in the experiment with MDA-N it was 27.5 µM (inactive); in the experiment on NCI/ADR-RES it was 52 µM (inactive); in the experiment on NCI-H522, 55.8 µM (inactive).
Take `Cn1c(-c2cccs2)cc(-c2cccs2)c1-c1ccsc1`: the GI50 in the experiment with Hs-578T is > 100 µM (inactive); in the experiment on OVCAR-5 it was > 100 µM (inactive); in the experiment on T47D it was > 100 µM (inactive); in the experiment on SK-MEL-5 it was 27.2 µM (inactive); in the experiment on OVCAR-4 it was > 100 µM (inactive); in the experiment with UACC-62, > 100 µM (inactive). For the same compound, the GI50 was > 100 µM (inactive) in the experiment on SF-539; > 100 µM (inactive) with HOP-92; 70.5 µM (inactive) with A549; > 100 µM (inactive) in the experiment with CCRF-CEM; > 100 µM (inactive) with EKVX; > 100 µM (inactive) in the experiment with A498. The GI50 in the experiment on OVCAR-8, in the experiment on PC-3, with HCC 2998, in the experiment with MDA-N and in the experiment on NCI/ADR-RES was > 100 µM (inactive) each time.
Turning to `Cn1ccc2c(c1=O)C(=O)OC2(C)C` [CERPEGIN], the GI50 with IGROV-1, in the experiment with Hs-578T, in the experiment on OVCAR-5, in the experiment on T47D, in the experiment with SK-MEL-5 and with OVCAR-4 was > 100 µM (inactive) in each case. The GI50 with UACC-62, in the experiment on SF-539, with A549, in the experiment with CCRF-CEM, in the experiment with EKVX and in the experiment on A498 was > 100 µM (inactive) throughout. The GI50 with OVCAR-8, with PC-3, with HCC 2998, in the experiment with MDA-N and with NCI/ADR-RES was > 100 µM (inactive) each time.
As for `N#C/C(=C\c1ccc(F)cc1)c1nc2ccccc2c(=O)[nH]1`, the GI50 in the experiment with IGROV-1 is > 100 µM (inactive); with Hs-578T, 79.6 µM (inactive); in the experiment on OVCAR-5 it was > 100 µM (inactive); in the experiment on T47D it was > 100 µM (inactive); in the experiment with OVCAR-4 it was > 100 µM (inactive); in the experiment with UACC-62 it was > 100 µM (inactive). For the same compound, the GI50 was > 100 µM (inactive) in the experiment with SF-539; 82.2 µM (inactive) in the experiment on HOP-92; > 100 µM (inactive) in the experiment on A549; > 100 µM (inactive) in the experiment on CCRF-CEM; > 100 µM (inactive) in the experiment with EKVX; > 100 µM (inactive) in the experiment with OVCAR-8. In addition, the GI50 with PC-3, with HCC 2998, in the experiment with MDA-N, in the experiment with NCI/ADR-RES and in the experiment with NCI-H522 was > 100 µM (inactive) in each case.
On to `Clc1ccc(-c2nc3cc(Cl)ccc3[nH]2)cc1`, for which the GI50 in the experiment on IGROV-1 was 43.4 µM (inactive); in the experiment with Hs-578T, 30.8 µM (inactive); with T47D, 26.5 µM (inactive); in the experiment on SK-MEL-5, 32.7 µM (inactive); with OVCAR-4, 58.1 µM (inactive); in the experiment on UACC-62, 32.7 µM (inactive). For the same compound, the GI50 in the experiment with SF-539 is 22.6 µM (inactive); in the experiment on HOP-92, 27.7 µM (inactive); in the experiment on A549 it was 29.3 µM (inactive); in the experiment with CCRF-CEM, 54 µM (inactive); with EKVX it was 34.9 µM (inactive); in the experiment with OVCAR-8, 37.6 µM (inactive). Besides, the GI50 in the experiment on PC-3 was 27.2 µM (inactive); in the experiment on HCC 2998, 29.8 µM (inactive); in the experiment on MDA-N, 29.1 µM (inactive); in the experiment on NCI/ADR-RES, 19.9 µM (inactive); in the experiment on NCI-H522 it was 19.6 µM (inactive).

The values above are taken from ChEMBL document CHEMBL1201862, “PubChem BioAssay data set” (2004).
